Source: paper PMC10428205, “Cytotoxicity of Ruthenium(II) Arene Complexes Containing Functionalized Ferrocenyl β-Diketonate Ligands” (Organometallics, 2023)
Where “and” joins values, the source holds several entries; their conditions need not be identical. Identical values can stand only once. Like-named read-outs stand apart in the source and are kept apart here.

Legend:
[1] = system: MIA PaCa-2; assay: 24 and 48 h chemosensitivity (MTT, with recovery period); type: cell-based, human
Experimental: (§1) LogP = Log ( [C]final ) Eqn1
(§2) 96 h Chemosensitivity Studies
(§3) In vitro chemosensitivity tests were performed at both the University of Huddersfield and the Institute of Cancer Therapeutics, Bradford, in a sterile Class II Biological Safety Cabinet fitted with a HEPA filtered laminar airflow.
(§4) Cellular assays were conducted against human pancreatic carcinoma (MIA PaCa-2), human colorectal carcinoma p53-wildtype (HCT116 p53+/+), and human non-cancerous epithelial retinal cells (ARPE-19). The ARPE-19 cells were obtained from the American Type Culture Collection and provided by the University of Huddersfield. All cell lines were routinely maintained as monolayer cultures in appropriate complete medium and maintained in either T-25 or T-75 flasks at 37 °C and 5% CO2. MIA PaCa-2 and ARPE-19 cells were cultured in high glucose DMEM-F12 medium containing 10% foetal calf serum, and HCT116 p53+/+ was cultured in RPMI 1640 supplemented with 10% foetal calf serum. All medium was supplemented with sodium pyruvate (1 mM) and L-glutamine (2 mM), and prior to chemosensitivity studies, cell monolayers were passaged using Trypsin-EDTA and diluted to a concentration of 1 x 10^4 cells/mL. All assays were conducted using 96-well plates, in which 100 mL of the 1 x 10^4 cells/mL cell suspension was added to each well and incubated for 24 h at 37 °C and 5% CO2. After 24 h, 100 mL of drug dilutions (fresh 100 mM stock solutions in DMSO) in media were added to the plates and then incubated for a further 96 h at 37°C and 5% CO2 (48 h + 48 h recovery period were used for the shorter exposures with MIA PaCa-2 cells only). After 96 h, 20 mL MTT (3-(4,5-dimethylthiazol-2-yl)-2,5-diphenyltetrazolium bromide, 5 mg/mL) was added to each well and incubated for 3 h at 37 °C and 5% CO2. All solutions were then removed from the 96-well plates via pipette and 150 mL of DMSO added to each well to dissolve the purple formazan crystals. After mixing well, the absorbance of each well was measured at 540 nm using a ThermoFisher Multiskan FC spectrophotometer microplate reader. Using the blank and 100% cell controls, the % cell viability was determined [(abs. of compound containing wells – abs. media wells)/(abs. 100% cell suspension well control)] and from this the % cell death (100%- % cell viability) was calculated. On a logarithmic scale, the percentage cell death was plotted against the concentration of compound, and from this the half maximal inhibitory concentration (IC50) value was determined. Each of the experiments were performed in triplicate with mean values being stated as the IC50 ± Standard Deviation (SD).
24 and 48 h Chemosensitivity Studies
The same experimental protocol described for the 96 h MTT assay was used, and the MIA PaCa-2 cells were incubated for either 24 or 48 h, with a 72 or 48 h recovery period respectively. […]
(§5) All assays were conducted in triplicate.

[2] = Cyclic voltammetry
[3] = system: MIA PaCa-2; type: cell-based; settings: for IC50: 96 h MTT, normoxic, ± SD, read-out: IC50 against MIA PaCa-2; for Selectivity index (SI), IC50 ARPE-19 / IC50 MIA PaCa-2: 96 h, * = minimum value as at least one IC50 > 100
Experimental: as §1, §2, §3
Cellular assays were conducted against human pancreatic carcinoma (MIA PaCa-2), human colorectal carcinoma p53-wildtype (HCT116 p53+/+), and human non-cancerous epithelial retinal cells (ARPE-19). […]
were obtained from the American Type Culture Collection and provided by the University of Huddersfield. All cell lines were routinely maintained as monolayer cultures in appropriate complete medium and maintained in either […]
T-25 or T-75 flasks at 37 °C and 5% CO2.
10% foetal calf serum. All medium was supplemented with sodium pyruvate (1 mM) and L-glutamine (2 mM), and prior to chemosensitivity studies, cell monolayers were passaged using Trypsin-EDTA and diluted to a […]
cells/mL cell suspension was added to each well and incubated for 24 h at 37 °C and 5% CO2. After 24 h, 100 mL of drug dilutions (fresh 100 mM stock solutions in DMSO) in media were added to the plates and then incubated for a further 96 h at 37°C and 5% CO2 (48 h + 48 h recovery period were used for the shorter exposures with MIA PaCa-2 cells only). After 96 h, 20 mL MTT (3-(4,5-dimethylthiazol-2-yl)-2,5-diphenyltetrazolium bromide, 5 mg/mL) was added to each well and incubated for 3 h at 37 °C and 5% CO2. All solutions were then removed from the 96-well plates via pipette and […] of DMSO added to each well to dissolve the purple formazan […]
FC spectrophotometer microplate reader. Using the blank and 100% cell controls, the % cell viability was determined [(abs. of compound containing wells – abs. media wells)/(abs. 100% cell suspension well control)] and from this the % cell death (100%- % cell viability) was calculated. On a logarithmic scale, the percentage cell death was plotted against the concentration of compound, and from this the half maximal inhibitory concentration (IC50) value was determined. Each of the experiments were performed in triplicate with mean values being stated as the IC50 ± Standard Deviation (SD). […]

[4] = system: ARPE-19; assay: 96 h MTT chemosensitivity assay, normal cells; type: cell-based, human; settings: normal retinal epithelial cells, ± SD, read-out: IC50 against ARPE-19
Experimental: as §1, §2, §3
as §4, with “After 24 h, 100 mL of drug dilutions (fresh 100 mM stock solutions in DMSO) in media were added to the plates and then incubated for a further 96 h at 37°C and 5% CO2 (48 h + 48 h recovery period were used for the shorter exposures with MIA PaCa-2 cells only). After 96 h, 20 mL MTT (3-(4,5-dimethylthiazol-2-yl)-2,5-diphenyltetrazolium bromide, 5 mg/mL) was added to each well and incubated for 3 h at 37 °C and 5% CO2. All solutions were then removed from the 96-well plates via pipette and 150 mL of DMSO added to each well to dissolve the purple formazan crystals.” left out, “Each of the experiments were performed in triplicate with mean values being stated as the IC50 ± Standard Deviation (SD).” left out

[5] = system: MIA PaCa-2; assay: Chemosensitivity under hypoxic conditions (0.1% O2, 96 h MTT); type: cell-based, human; settings: MIA PaCa-2, 0.1% O2, 96 h MTT
Experimental: as §1, §2, §3
as §4, with “After 24 h, 100 mL of drug dilutions (fresh 100 mM stock solutions in DMSO) in media were added to the plates and then incubated for a further 96 h at 37°C and 5% CO2 (48 h + 48 h recovery period were used for the shorter exposures with MIA PaCa-2 cells only). After 96 h, 20 mL MTT (3-(4,5-dimethylthiazol-2-yl)-2,5-diphenyltetrazolium bromide, 5 mg/mL) was added to each well and incubated for 3 h at 37 °C and 5% CO2. All solutions were then removed from the 96-well plates via pipette and 150 mL of DMSO added to each well to dissolve the purple formazan crystals.” left out, “Each of the experiments were performed in triplicate with mean values being stated as the IC50 ± Standard Deviation (SD).” left out

[6] = system: HCT116 p53+/+; assay: 96 h MTT chemosensitivity assay; type: cell-based, human; settings: for Selectivity index (SI), IC50 ARPE-19 / IC50 HCT116 p53+/+: 96 h, * = minimum value as at least one IC50 > 100; for IC50: 96 h MTT, ± SD, read-out: IC50 against HCT116 p53+/+
Experimental: as §1, §2, §3
as §4, with “(SD). […]” for “(SD).”
as §5

[7] = system: MIA PaCa-2; settings: read-out: IC50 against MIA PaCa-2 (previously reported analogue); cited from earlier work

| IC50 ([1]; MIA PaCa-2, 24 h exposure + 72 h recovery, read-out: IC50 values ± SD, 24 h) [µM] | IC50 ([1]; MIA PaCa-2, 48 h exposure + 48 h recovery, read-out: IC50 values ± SD, 48 h) [µM] | E0′ (Fc*/Fc*+) ([2]; 0.1 M TBAPF6 in acetonitrile, vs SCE, Fc/Fc+ = 0.40 V internal standard) [V] | EP Red ([2]; irreversible reduction, vs SCE) | E0’ (Fc*/Fc*+) at 0.05 V/s ([2]; scan speed 0.05 V/s) [V] | E0’ (Fc*/Fc*+) at 0.10 V/s ([2]; scan speed 0.10 V/s) [V] | E0’ (Fc*/Fc*+) at 0.25 V/s ([2]; scan speed 0.25 V/s) [V] | Compound | IC50 [3] [µM] | IC50 [4] | IC50 under hypoxic conditions [5] | Selectivity index (SI), IC50 ARPE-19 / IC50 MIA PaCa-2 [3] | Selectivity index (SI), IC50 ARPE-19 / IC50 HCT116 p53+/+ [6] | IC50 [6] [µM] | IC50 [7] [µM] |
| --- | --- | --- | --- | --- | --- | --- | --- | --- | --- | --- | --- | --- | --- | --- |
| > 100 | 43 ± 1 | 0.63 | –1.70 V | 0.64 | 0.63 | 0.63 | O=C(C=C(O)c1ccco1)[c-]1cccc1.[Fe+2].c1cc[cH-]c1 [Complex L4] | 42.1 ± 0.8 | – | – | – | – | – | – |
| – | – | – | – | – | – | – | O=C1[O][Pt]2([NH][C@@H]3CCCC[C@H]3[NH]2)[O]C1=O [OXA, oxaliplatin, reference compound] | 6 ± 1 | 3 µM and 6 µM | decrease in cytotoxicity | 0.5 | 3.2 | 0.9 ± 0.1 | – |
| – | – | – | – | – | – | – | N.N.O=C([O-])C1(C(=O)[O-])CCC1.[Pt+2] [CARB, carboplatin, reference compound] | 36 ± 3 | 77 ± 10 µM | – | 2.2 | 2.4 | 32 ± 11 | – |
| – | – | – | – | – | – | – | [(bpy)2(Fc-acac)Ru][PF6] [Figure 1F] | – | – | – | – | – | – | 0.11 ± 0.01 |
